Activity calls are given as the source filed them. The calls are words filed in the database; no cut-off is given here.
How the values were obtained:
Ehrlich [1] = assay: Antineoplastic activity against mouse EAC allografted in CF1 mouse assessed as tumor growth inhibition on day 7 measured at 33 mg/kg; assay type: functional; details: 168 h, read-out: TGI
Ehrlich [2] = assay: Antineoplastic activity against mouse EAC allografted in CF1 mouse assessed as packed cell volume on day 7 measured at 33 mg/kg (reference value: 32.75 +/- 7.87%); assay type: functional
Ehrlich [3] = assay: Antineoplastic activity against mouse EAC allografted in CF1 mouse assessed as ascites volume on day 7 measured at 33 mg/kg (reference value: 4.1 +/- 1.24 mL); assay type: functional
Ehrlich [4] = assay: Antineoplastic activity against mouse EAC allografted in CF1 mouse assessed as animal survival on day 7 measured at 33 mg/kg; assay type: functional, organism-based; set-up: dose 33 mg/kg
P388 [5] = assay: Antitumor activity against mouse P388 cells allografted in DBA/2 mouse assessed as median survival time of treated versus control mice (T/C) at 20 mg/kg/day, ip; assay type: functional; details: route intraperitoneal
P388 [6] = assay: Antitumor activity against mouse P388 cells allografted in DBA/2 mouse assessed as animal survival days at 20 mg/kg/day, ip; assay type: functional; details: route intraperitoneal
W256 [7] = assay: Antitumor activity against rat Walker 256 cells allografted in Sprague-Dawley rat assessed as survival time (treated/control) at 2.5 mg/kg/day, ip; assay type: functional; details: route intraperitoneal
W256 [8] = assay: Antitumor activity against rat Walker 256 cells allografted in Sprague-Dawley rat assessed as animal survival days at 2.5 mg/kg/day, ip; assay type: functional; details: route intraperitoneal
[9] = Acute toxicity in CF1 mouse; assay type: organism-based; details: in vivo

| Structure (SMILES) | inhibition in vivo at 33 mg/kg (Ehrlich [1]) [%] | Activity (Ehrlich [2]) [%] | Activity (Ehrlich [3]) [mL] | Activity (Ehrlich [4]) | T/C (P388 [5]) [%] | Survival (P388 [6]) [days] | T/C (W256 [7]) [%] | Survival (W256 [8]) [days] | LD50 [9] [µmol/kg] |
| --- | --- | --- | --- | --- | --- | --- | --- | --- | --- |
| O=C(O)CCCNC(=O)OCc1ccccc1 | 71 | 32.3 | 0.8 | Active | – | – | – | – | – |
| C#CCOC(=O)CCCNC(=O)OCc1ccccc1 | 20 | 34.5 | 2.3 | Active | 83 | 6.7 | 305 | 23 | – |
| N#CCOC(=O)[C@H](Cc1c[nH]c2ccccc12)NC(=O)OCc1ccccc1 | 38 | 19.7 | 4.3 | Active | – | – | – | – | – |
| O=C(O)CC[C@H](NC(=O)OCc1ccccc1)C(=O)O | 81 | 28 | 0.7 | Active | – | – | – | – | 1780 |
| C#CCOC(=O)CNC(=O)OCc1ccccc1 | 0 | 27 | 5.2 | Active | – | – | – | – | – |
| N[C@@H](Cc1ccc(N(CCCl)CCCl)cc1)C(=O)O | 99 | 3 | 0.1 | Active | – | – | 305 | 23 | – |
| O=C(CCCNC(=O)OCc1ccccc1)OC(Br)CBr (stereo unspecified) | 98.7 | 2 | 0.6 | – | 100 | 8.1 | 226 | 18.1 | – |
| O=C(O)C[C@H](NC(=O)OCc1ccccc1)C(=O)O | 31 | 21 | 3.7 | Active | – | – | – | – | – |
| N#CCOC(=O)[C@H](CCC(N)=O)NC(=O)OCc1ccccc1 | 51 | 40 | 2 | – | – | – | – | – | – |
| O=C(OC(Br)CBr)[C@@H]1CCCN1C(=O)OCc1ccccc1 (stereo partly specified) | 84 | 10 | 2.1 | Active | – | – | – | – | 190 |
| C=COC(=O)CC[C@H](NC(=O)OCc1ccccc1)C(=O)OC=C | 69 | 37 | 0.9 | Active | – | – | – | – | 1500 |
| C#CCOC(=O)[C@H](CC(C)C)NC(=O)OCc1ccccc1 | 85 | 23 | 0.5 | Active | 112 | 9.1 | – | – | 1650 |
| C=COC(=O)[C@H](CC(C)C)NC(=O)OCc1ccccc1 | 48 | 38 | 0.9 | Active | – | – | – | – | – |
| CC(C)C[C@H](NC(=O)OCc1ccccc1)C(=O)OC(Br)CBr (stereo partly specified) | 99 | 14 | 0.002 | Active | 112 | 9.1 | 113 | 8.5 | 500 |
| O=C(N[C@@H](Cc1ccccc1)C(=O)OC(Br)CBr)OCc1ccccc1 (stereo partly specified) | 100 | 1.4 | 0 | Active | – | – | – | – | – |
| C=COC(=O)[C@H](Cc1ccc(O)cc1)NC(=O)OCc1ccccc1 | 16 | 29.7 | 3.9 | Active | – | – | – | – | – |
| Cc1ccc(S(=O)(=O)N[C@@H](Cc2ccc(OS(=O)(=O)c3ccc(C)cc3)cc2)C(=O)OCC#N)cc1 | 53 | 6.5 | 0.8 | Active | – | – | – | – | – |
| Cc1ccc(S(=O)(=O)N[C@@H](Cc2ccccc2)C(=O)CCl)cc1 [TPCK] | 100 | 0.05 | 0.01 | – | – | – | – | – | – |
| O=Cc1ccccc1 [BENZALDEHYDE] | 69 | 49 | 0.8 | Active | – | – | – | – | – |
| O=C(O)CNC(=O)OCc1ccccc1 | 97 | 22 | 0.2 | – | – | – | – | – | – |
| CC=O | 43 | 56 | 2 | – | – | – | – | – | – |
| C=COC(=O)[C@H](Cc1ccc(O)cc1)NS(=O)(=O)c1ccc(C)cc1 | 75 | 17.5 | 1.9 | Active | – | – | – | – | – |
| C=COC(=O)[C@H](Cc1ccccc1)NS(=O)(=O)c1ccc(C)cc1 | 56.8 | 19.2 | 3.8 | – | – | – | – | – | – |
| C=COC(=O)[C@H](Cc1ccccc1)NC(=O)OCc1ccccc1 | 99.9 | 0.4 | 0.1 | Active | – | – | – | – | > 6150 |

| Structure (SMILES) | inhibition in vivo at 33 mg/kg (Ehrlich [1]) [%] | Activity (Ehrlich [2]) [%] | Activity (Ehrlich [3]) [mL] | Activity (Ehrlich [4]) | T/C (P388 [5]) [%] | Survival (P388 [6]) [days] | T/C (W256 [7]) [%] | Survival (W256 [8]) [days] | LD50 [9] [µmol/kg] |
| --- | --- | --- | --- | --- | --- | --- | --- | --- | --- |
| N#CCOC(=O)[C@H](Cc1ccccc1)NC(=O)c1ccccc1 | 47 | 13.2 | 1.8 | – | – | – | – | – | – |
| Cc1ccc(S(=O)(=O)N[C@@H](Cc2ccccc2)C(=O)OCC#N)cc1 | 97 | 3.4 | 0.4 | – | – | – | – | – | – |
| O=C(CNC(=O)OCc1ccccc1)OC(Br)CBr (stereo unspecified) | 100 | 0 | 0 | Active | 28 | 2.2 | 135 | 10.1 | 370 |
| O=C(O)CCCCCNC(=O)OCc1ccccc1 | 63 | 33 | 1 | Active | – | – | – | – | – |
| C=COC(=O)CCCNC(=O)OCc1ccccc1 | 6 | 39.5 | 3.2 | Active | – | – | – | – | – |
| C=COC(=O)[C@@H]1CCCN1C(=O)OCc1ccccc1 | 73 | 35 | 1 | – | – | – | – | – | 1820 |
| O=c1[nH]cc(F)c(=O)[nH]1 [FLUOROURACIL] | – | – | – | – | 136 | 11 | – | – | – |
| O=C(CCCCCNC(=O)OCc1ccccc1)OC(Br)CBr (stereo unspecified) | 50 | 30 | 1.7 | – | – | – | – | – | – |
| Cc1ccc(S(=O)(=O)N[C@@H](Cc2ccc(O)cc2)C(=O)OCC#N)cc1 | 56 | 15.8 | 3.8 | – | – | – | – | – | 220 |
| N#CCOC(=O)CCCNC(=O)OCc1ccccc1 | 71 | 48.8 | 0.6 | – | – | – | – | – | – |
| N#CCOC(=O)[C@H](Cc1ccccc1)NC(=O)OCc1ccccc1 | 99.9 | 0.1 | 0.2 | Active | – | – | – | – | – |
| N#CCOC(=O)C[C@H](NC(=O)OCc1ccccc1)C(=O)OCC#N | 7 | 33 | 4.7 | – | – | – | – | – | – |
| C=COC(=O)CNC(=O)OCc1ccccc1 | 63 | 34 | 1.5 | Active | – | – | – | – | 2130 |
| C#CCOC(=O)C[C@H](NC(=O)OCc1ccccc1)C(=O)OCC#C | 31 | 21 | 3.7 | Active | – | – | – | – | – |
| C=COC(=O)CCCCCNC(=O)OCc1ccccc1 | 75 | 36 | 0.6 | Active | – | – | – | – | – |
| C=COC(=O)[C@H](Cc1ccccc1)NC(=O)c1ccccc1 | 56.8 | 9.8 | 2.1 | Active | – | – | – | – | – |
| CC(C)C[C@H](NC(=O)OCc1ccccc1)C(=O)OCC#N | 27 | 38 | 2.7 | Active | – | – | – | – | – |
| N#CCOC(=O)CNC(=O)OCc1ccccc1 | 29 | 44.7 | 2.2 | Active | – | – | – | – | – |
| N#CCOC(=O)CC[C@H](NC(=O)OCc1ccccc1)C(=O)OCC#N | 35 | 32 | 3.2 | Active | – | – | – | – | – |
| N#CCOC(=O)CCCCCNC(=O)OCc1ccccc1 | 54 | 41 | 1 | Active | – | – | – | – | – |
| N#CCOC(=O)[C@H](Cc1ccc(O)cc1)NC(=O)OCc1ccccc1 | 0 | 31.1 | 4.5 | Active | – | – | – | – | – |
| Sc1ncnc2nc[nH]c12 [MERCAPTOPURINE ANHYDROUS] | 99.6 | 0.3 | 0.7 | Active | 148 | 12 | – | – | – |
| O=C(O)[C@@H]1CCCN1C(=O)OCc1ccccc1 | 53 | 32 | 1.9 | Active | – | – | – | – | – |
| C=COC(=O)[C@H](Cc1c[nH]c2ccccc12)NC(=O)OCc1ccccc1 | 87 | 14.3 | 1.3 | Active | – | – | 106 | 8 | – |
